According to publication PMC11017246, “Discovery of GLPG2737, a Potent Type 2 Corrector of CFTR for the Treatment of Cystic Fibrosis in Combination with a Potentiator and a Type 1 Co-corrector” (Journal of Medicinal Chemistry, 2024):
Values belong to the compound of their own block, whether it stands above or below them.

Assays:
[1] = Plasma protein binding, human; format: in vitro ADME; settings: human, plasma, pH 7.4, human plasma; read-out: PPB % human (converted)
Procedure: (§1) Plasma protein binding was determined by equilibrium dialysis using the Pierce Red Device plate with inserts (ThermoScientific). Test compound at 5 μM (0.5% DMSO) spiked in freshly thawed human, rat, mouse, or dog plasma (Bioreclamation INC, Westbury, NY, USA) was dialyzed against phosphate-buffered saline (PBS, pH 7.4) at 37 °C under shaking for 4 h. Aliquots were taken from each side of the well, and matrix matched. Proteins were precipitated with an excess of acetonitrile, samples were mixed and centrifuged, and the supernatant was analyzed by liquid chromatography–mass spectrometry/mass spectrometry (LC–MS/MS). Addition of compound peak areas in the buffer chamber and the plasma chamber was considered to be 100% compound.

[2] = system: cytochrome P450 subtypes except 2C9; test: CYP inhibition, all subtypes except 2C9; format: in vitro ADME; settings: human, liver microsomes, pH 7.4
Procedure: (§2) Test compounds were diluted in methanol and then added to mixture containing 50 mM potassium phosphate buffer, pH 7.4, human liver microsomes (BD Gentest) and probe substrate. After prewarming for 5 min at 37 °C, the reaction was started by adding cofactor mix (7.65 mg/mL glucose-6-phosphate, 1.7 mg/mL NADP, 6 U/mL of glucose-6-phosphate dehydrogenase), resulting in seven final concentrations of test compounds in the range 0.14–100 μM (2% methanol). Isoform specific conditions regarding probe substrate and microsomal protein concentrations are available in Table 2. Final concentrations of cofactor mix components were as follows: 1.56 mg/mL glucose-6-phosphate, 0.34 mg/mL NADP, and 1.2 U/mL glucose-6-phosphate dehydrogenase. After incubation at 37 °C, the reaction was terminated with acetonitrile:methanol (2:1) solution with internal standard. Samples were centrifuged, and the supernatant fractions were analyzed by LC-MS/MS. The instrument responses (test compounds and internal standard peak areas) were referenced to those for solvent controls (assumed as 100%) in order to determine the percentage reduction in probe metabolism. Percent of control activity vs concentration plots were generated and fitted using GraphPad Prism software to generate IC50.

PK rat = format: in vivo
Procedure: These studies were performed with naïve male Sprague–Dawley rats (Janvier France, 6–8 weeks old). Rats were dosed iv via a bolus in the tail vein with a dose level of 0.1 mg/kg or orally as a single esophageal gavage with a dose level of 5 mg/kg. For the iv route, the compound was formulated in PEG200/water (60/40; v/v). For the oral route, the compound was formulated in MC 0.5% (2/98) as a homogeneous suspension. Before the oral dosing, the animals were deprived of food for at least 12 h before compound administration until 3 h after administration. All animals had free access to the tap water. Blood samples were collected under light anesthesia and placed into tubes containing Li-heparin as an anticoagulant. Blood samples were collected up to 24 h after dosing (n = 3 rats per route). After centrifugation, the resulting plasma samples were assayed by LC-MS/MS with a nongood laboratory practice (non-GLP)-validated method. PK parameters were calculated by noncompartmental analysis using WinNonlin software (Certara, Princeton, NJ, USA).

CYP3A4 enzyme = CYP3A4 enzyme (Homo sapiens, UniProt P08684); test: Mechanism-based inactivation of CYP3A4; format: in vitro ADME
Sequence of CYP3A4 enzyme (P08684 whole entry): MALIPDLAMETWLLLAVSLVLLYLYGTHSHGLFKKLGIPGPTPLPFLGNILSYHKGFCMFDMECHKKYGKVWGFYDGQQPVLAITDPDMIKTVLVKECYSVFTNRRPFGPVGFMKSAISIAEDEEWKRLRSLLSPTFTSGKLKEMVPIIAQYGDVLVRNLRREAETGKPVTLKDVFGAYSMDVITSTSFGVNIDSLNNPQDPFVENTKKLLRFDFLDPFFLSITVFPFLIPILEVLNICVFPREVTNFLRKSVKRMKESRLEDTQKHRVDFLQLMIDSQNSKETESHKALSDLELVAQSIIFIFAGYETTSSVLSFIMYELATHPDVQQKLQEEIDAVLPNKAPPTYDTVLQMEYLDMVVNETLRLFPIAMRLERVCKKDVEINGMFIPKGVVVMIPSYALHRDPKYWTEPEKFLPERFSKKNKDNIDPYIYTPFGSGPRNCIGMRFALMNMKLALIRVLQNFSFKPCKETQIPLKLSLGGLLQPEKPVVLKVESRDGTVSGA

CYP3A4 = CYP3A4 induction (mRNA) in human hepatocytes; format: in vitro ADME; settings: for CYP (3A4) mRNA induction, result in words: compared with positive control rifampicin
Procedure: Cryopreserved human hepatocytes from a single donor were seeded at 0.1 × 10^6 cells/well. The next day, cells were dosed with test compound in assay medium (final test compound concentration 10 μM; final DMSO concentration 0.1%). Positive control inducer, rifampicin, for CYP3A4, was incubated alongside the test compound. Negative control wells were included where the test compound is replaced by vehicle solvent (0.1% DMSO in assay medium). Each test or control compound was dosed in triplicate at a single concentration (10 μM). The cells were exposed to the solutions for 72 h with fresh solution added every 24 h. For mRNA assessment, all media was removed from each of the wells, and the cells were washed once. The cells were lysed, and total RNA was then isolated from the hepatocyte lysates. Reverse transcription was performed, and quantitative PCR analysis was performed on the resulting cDNA, using gene-specific primer probe sets for CYP3A4 target cDNA and endogenous control. Samples were analyzed using an ABI 7900 HT real time PCR system. For mRNA assessment, relative fold mRNA expression was determined based on the threshold cycle (CT) data of target gene relative to endogenous control for each reaction and normalized to negative control using the 2-ΔΔCT method. Data were expressed as fold activation relative to the vehicle control and, as a percent, to the 10 μM rifampicin using the following formula: % of positive control = ((fold increase of the cpd relative to vehicle control – 1)/(fold increase of the rifampicin at 10 μM – 1)) × 100.

CYP2C9 = molecular target: T1, CYP2C9 (Homo sapiens, UniProt P11712); test: CYP reversible inhibition in HLM, CYP2C9; format: in vitro ADME; settings: probe not given; read-out: CYP inhibition IC50, 2C9
T1 construct: tissue BD Gentest; host or cells: human liver microsomes
T1 sequence (P11712 whole entry): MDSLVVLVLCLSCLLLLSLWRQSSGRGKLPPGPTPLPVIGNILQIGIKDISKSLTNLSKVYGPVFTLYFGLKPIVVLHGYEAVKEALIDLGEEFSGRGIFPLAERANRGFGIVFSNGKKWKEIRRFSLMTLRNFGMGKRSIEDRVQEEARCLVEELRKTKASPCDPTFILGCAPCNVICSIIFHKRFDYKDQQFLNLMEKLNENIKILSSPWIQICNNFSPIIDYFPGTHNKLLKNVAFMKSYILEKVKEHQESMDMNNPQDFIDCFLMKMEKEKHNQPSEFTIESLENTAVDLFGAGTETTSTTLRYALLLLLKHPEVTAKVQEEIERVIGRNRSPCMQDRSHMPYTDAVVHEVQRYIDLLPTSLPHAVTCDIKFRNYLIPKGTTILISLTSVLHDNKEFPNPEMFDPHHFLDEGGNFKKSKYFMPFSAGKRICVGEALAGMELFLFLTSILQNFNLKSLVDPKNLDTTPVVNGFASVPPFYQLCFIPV
Procedure: as §2

[3] = Plasma protein binding, rat; format: in vitro ADME; settings: pH 7.4, read-out: PPB % rat (converted)
Procedure: as §1

[4] = Plasma protein binding, dog; format: in vitro ADME; settings: dog, plasma, pH 7.4, dog plasma; read-out: PPB % dog (converted)
Procedure: as §1

PK dog = format: in vivo; settings: iv
Procedure: These studies were performed with non-naïve male Beagle dogs (age 13.8 months old, origin: Marshall US, North Rose, NY 14516, USA; age 15.8 months old, origin: Harlan; age 17.7 months old, origin: Harlan). Dogs (n = 3) were dosed iv via a 10 min infusion via a catheter with a dose level of 1 mg/kg. After a washout of 3 days, they were dosed orally as a single gavage with a dose level of 5 or 1 mg/kg in PEG400/MC 0.5% or MC 0.5%. Before administration by the po route, animals were fasted for a period of at least 12 h before treatment, and food was given just after the 3 h of blood sampling. All animals had free access to tap water. Blood samples were taken without an anesthetic from a jugular or cephalic vein into tubes containing lithium heparin as an anticoagulant. Blood samples were taken up to 24 h after the start of the infusion. After centrifugation, the resulting plasma samples were assayed by LC-MS/MS with a nongood laboratory practice (non-GLP)-validated method. PK parameters were calculated by noncompartmental analysis using WinNonlin software (Certara, Princeton, NJ, USA).

ΔF508 CFTR = molecular target: T2, ΔF508 CFTR (Homo sapiens, UniProt P13569, DEL508-508); test: TECC (transepithelial clamp circuit) in primary CF-derived HBE cells; format: cell-based
T2 construct: host or cells: CFBE41o- TetON cells, expression induced with doxycycline
T2 sequence (P13569 with tags, fused parts or gaps DEL508-508): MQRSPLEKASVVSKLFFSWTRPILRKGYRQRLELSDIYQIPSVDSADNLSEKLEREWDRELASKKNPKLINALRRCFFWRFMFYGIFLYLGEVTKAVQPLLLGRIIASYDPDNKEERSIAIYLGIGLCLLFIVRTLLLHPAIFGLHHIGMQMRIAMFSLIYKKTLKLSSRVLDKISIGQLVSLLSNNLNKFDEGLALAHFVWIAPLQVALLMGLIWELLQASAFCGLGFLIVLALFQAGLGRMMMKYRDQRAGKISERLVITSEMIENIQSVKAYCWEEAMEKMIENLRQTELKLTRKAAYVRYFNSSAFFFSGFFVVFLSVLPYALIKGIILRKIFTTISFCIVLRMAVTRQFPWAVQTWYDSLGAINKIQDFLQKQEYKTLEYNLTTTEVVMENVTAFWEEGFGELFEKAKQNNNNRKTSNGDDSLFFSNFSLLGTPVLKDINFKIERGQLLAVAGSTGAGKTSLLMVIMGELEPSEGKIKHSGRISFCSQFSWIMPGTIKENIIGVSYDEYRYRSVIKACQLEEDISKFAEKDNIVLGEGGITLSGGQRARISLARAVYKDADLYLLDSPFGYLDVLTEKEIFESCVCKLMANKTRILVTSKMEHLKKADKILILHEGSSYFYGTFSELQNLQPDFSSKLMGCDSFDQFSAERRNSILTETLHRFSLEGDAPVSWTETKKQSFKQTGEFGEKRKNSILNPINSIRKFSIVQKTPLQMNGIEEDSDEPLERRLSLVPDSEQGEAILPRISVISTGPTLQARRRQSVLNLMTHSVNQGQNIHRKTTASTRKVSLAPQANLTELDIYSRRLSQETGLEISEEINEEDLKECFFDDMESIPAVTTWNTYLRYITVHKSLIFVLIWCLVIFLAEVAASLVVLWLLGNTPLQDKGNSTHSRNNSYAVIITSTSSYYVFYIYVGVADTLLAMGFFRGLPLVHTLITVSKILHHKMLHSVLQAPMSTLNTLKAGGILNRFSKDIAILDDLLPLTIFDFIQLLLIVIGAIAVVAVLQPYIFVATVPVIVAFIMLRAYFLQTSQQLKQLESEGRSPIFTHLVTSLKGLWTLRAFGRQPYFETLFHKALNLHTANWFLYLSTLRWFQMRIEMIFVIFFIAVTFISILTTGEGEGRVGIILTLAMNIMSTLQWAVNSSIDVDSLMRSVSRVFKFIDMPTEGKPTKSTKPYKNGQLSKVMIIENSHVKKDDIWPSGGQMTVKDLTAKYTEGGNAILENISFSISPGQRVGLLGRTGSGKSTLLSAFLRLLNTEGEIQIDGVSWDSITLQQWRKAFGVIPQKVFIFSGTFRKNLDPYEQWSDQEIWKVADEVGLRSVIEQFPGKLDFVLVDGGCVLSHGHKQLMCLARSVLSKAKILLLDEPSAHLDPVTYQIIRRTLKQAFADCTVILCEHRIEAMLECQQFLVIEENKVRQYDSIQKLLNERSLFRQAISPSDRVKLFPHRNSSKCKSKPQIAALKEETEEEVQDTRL
Procedure: Bronchial epithelial cells isolated from the lungs of patients with CF homozygous for the ΔF508 CFTR mutation were obtained from McGill University (Montreal, QC, Canada) or the University of North Carolina (Chapel Hill, NC, United States). Cells were isolated from lungs obtained from donors undergoing planned transplantation. These primary cells were cultured directly on type IV collagen-coated polycarbonate Transwell supports with a diameter of 6.5 mm and pore size of 0.4 μm (Costar, #3397) for 18–25 days in an air–liquid interface, essentially as previously described for TECC.[23]
Twenty-four hours prior to the electrophysiological recording, corrector and/or potentiator compounds were added on both the apical and basolateral sides. TECC recordings were performed by using the TECC instrument developed and sold by EP Design (Bertem, Belgium). During the recording, the epithelial cells were bathed in a NaCl-Ringer solution (120 mM NaCl, 20 mM HEPES, 1.2 mM CaCl2, 1.2 mM MgCl2, 0.8 mM KH2PO4, 0.8 mM K2HPO4, 5 mM glucose, pH 7.4) on both the basolateral (640 μL) and the apical (160 μL) sides and kept at 37 °C. Corrector and potentiator compounds were readded at the same concentration used during the 24 h pretreatment. Apical amiloride was used to inhibit the endogenous ENaC currents (100 μM), while forskolin (10 μM) was applied on both the apical and basolateral sides to stimulate CFTR. Measurements were done during a 20 min time frame with recordings every 2 min. The transepithelial potential and transepithelial resistance were measured in an open circuit and transformed to Ieq using Ohm’s law. The maximal increase in Ieq (ΔIeq, the difference in current before and after forskolin or potentiator treatment) was used as a measure for the increased CFTR activity. EC50 values were generated by measuring the impact of different concentrations of compounds on ΔIeq in primary cells. For this purpose, each transwell was treated with a different compound concentration. CFTRInh-172 was added apically at 10 μM to assess the specificity of the response. Dose response data was fitted using a 3-parameter hill function of the form Response = Bottom + (Top – Bottom)/(1 + (EC50/concentration)) to determine EC50 values. Percentage efficacy was calculated using the following formula: (max response – neg control)/(C1 response – neg control).

fraction unbound at 4 h, 5 μM [1]: 0.0035
IC50 [2]: ≥ 50 µM
clearance (PK rat; male, Sprague-Dawley, plasma, 1 mg/kg, iv dosing, read-out: plasma clearance (converted)): 0.0246 L/h/kg
bioavailability at 24 h (PK rat; male, Sprague-Dawley, plasma, 5 mg/kg po): 63.4%
clearance (PK rat; male, Sprague-Dawley, plasma, iv, 0.1 mg/kg, formula-strings file, unit inferred, read-out: Cl (converted)): 0.0246 L/h/kg
Vd (PK rat; male, Sprague-Dawley, plasma, iv, 0.1 mg/kg, formula-strings file, unit inferred, read-out: Vss): 0.195 L/kg
Vd (PK rat; male, Sprague-Dawley, plasma, iv, 1 mg/kg, 1 mg/kg iv, read-out: Vss): 0.2 L/kg
mechanism-based inactivation of CYP3A4 (CYP3A4 enzyme): devoid of mechanism-based inactivation
CYP (3A4) mRNA induction, result in words (CYP3A4): low CYP3A4 induction
IC50 (CYP2C9): 0.187 µM
fraction unbound at 4 h, 5 μM [3]: 0.0003
Structure (SMILES): CS(=O)(=O)NC(=O)c1cc(-c2ccc(N3CCC(C#N)CC3)nc2)c2c(C3CCC3)nn(-c3ccccc3)c2n1 [Compound 45]

fraction unbound at 4 h, 5 μM [1]: 0.01
CLu rat (PK rat; iv, unbound clearance): 4.2 L/h/kg
clearance (PK rat; male, Sprague-Dawley, plasma, 0.1 mg/kg, iv, read-out: CLp rat (converted)): 0.06 L/h/kg
half-life (PK rat; male, Sprague-Dawley, plasma, 0.1 mg/kg, iv, read-out: t1/2 iv rat (converted)): 4.7 h
Vd (PK rat; male, Sprague-Dawley, plasma, iv, 0.1 mg/kg, iv, read-out: Vss rat): 0.4 L/kg
CYP induction @10 μM (mRNA) % rifampicin (CYP3A4; data generated by AbbVie team): 6.7%
CYP induction @10 μM (mRNA) % rifampicin (CYP3A4; data generated by Galapagos): 12%
CYP (3A4) mRNA induction, result in words (CYP3A4): devoid of any CYP induction liability
fraction unbound at 4 h, 5 μM [4]: 0.015
CLu dog (PK dog; unbound clearance): 0.5 L/h/kg
clearance (PK dog; male, beagle, plasma, 1 mg/kg, read-out: CLp dog (converted)): 0.02 L/h/kg
Vd (PK dog; male, beagle, plasma, 1 mg/kg, read-out: Vss dog): 0.2 L/kg
half-life (PK dog; male, beagle, plasma, 1 mg/kg, read-out: t1/2 iv dog (converted)): 6.6 h
shift of the potentiator activity (ΔF508 CFTR; GLPG1837 potency in triple combination): 1 log unit
Emax (ΔF508 CFTR; primary ΔF508 homozygous HBE cells, 24 h incubation, with GLPG2222, read-out: TECC HBE with GLPG2222 % max activation): 534%
EC50 (ΔF508 CFTR; primary ΔF508 homozygous HBE cells, 24 h incubation, with GLPG2222, read-out: TECC HBE with GLPG2222 EC50): 0.039 µM
fraction unbound at 4 h, 5 μM [3]: 0.01
Structure (SMILES): CS(=O)(=O)NC(=O)c1cc(N2CCC(N3CCOCC3)CC2)c2c(C3CCC3)nn(-c3ccccc3)c2n1 [Compound 49]
